Data: the supplement of paper PMC10307832

Experiments:
Assay in all cases: relative viability (nuclei count vs DMSO), 5 days (fraction); higher = more cells survive
Quizartinib = compound: CC(C)(C)c1cc(NC(=O)Nc2ccc(-c3cn4c(n3)sc3cc(OCCN5CCOCC5)ccc34)cc2)no1 [Quizartinib]
In short: (§1)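 After an overnight hold at 37 °C, lung cancer cell lines in 1536-well plates were pinned with five library-drug doses (not always all listed), each √10 from the next, on vehicle-anchored plates. The cells stayed 5 days without fresh medium, then a one-step fix, permeabilisation and Hoechst stain preceded 4× imaging and MetaXpress nuclear counts. A plate passed only with control CV under 25% and at least one doubling. Viability is the median, over plates, of treated-well nuclei relative to vehicle-well nuclei.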

YM155 = compound: COCC[n+]1c2c(n(Cc3cnccn3)c1C)C(=O)c1ccccc1C2=O [YM155]
In short: as §1

Quizartinib + Navitoclax = compound: CC(C)(C)c1cc(NC(=O)Nc2ccc(-c3cn4c(n3)sc3cc(OCCN5CCOCC5)ccc34)cc2)no1 [Quizartinib] + CC1(C)CCC(c2ccc(Cl)cc2)=C(CN2CCN(c3ccc(C(=O)NS(=O)(=O)c4ccc(N[C@H](CCN5CCOCC5)CSc5ccccc5)c(S(=O)(=O)C(F)(F)F)c4)cc3)CC2)C1 [Navitoclax] (partner 0.5 µM)
In short: (§2)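 Lung cancer cell lines were seeded in 1536-well plates and dosed by pin tool the next day, with either a single drug or a fixed anchor-drug dose combined with five library-drug doses (not always all listed) spaced in √10 steps. Five days later, one step fixed the cells and stained their nuclei (final 0.05% Triton X-100, 1% formaldehyde, 1 ug/ml Hoechst), and nuclei were counted on 4× images. Relative viability is the nuclei count in treated wells divided by the count in vehicle wells, and each value is the median of duplicate plates.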

Quizartinib + Foretinib = compound: CC(C)(C)c1cc(NC(=O)Nc2ccc(-c3cn4c(n3)sc3cc(OCCN5CCOCC5)ccc34)cc2)no1 [Quizartinib] + COc1cc2c(Oc3ccc(NC(=O)C4(C(=O)Nc5ccc(F)cc5)CC4)cc3F)ccnc2cc1OCCCN1CCOCC1 [Foretinib] (partner 0.25 µM)
In short: as §2

Row | Cell Line | relative viability (Quizartinib; 0.001 µM) | relative viability (Quizartinib; 0.003162 µM) | relative viability (Quizartinib; 0.01 µM) | relative viability (Quizartinib; 0.03162 µM) | relative viability (Quizartinib; 0.1 µM) | relative viability (YM155; 0.002 µM) | relative viability (YM155; 0.006325 µM) | relative viability (YM155; 0.02 µM) | relative viability (YM155; 0.06325 µM) | relative viability (Quizartinib + Navitoclax; first compound 0.001 µM) | relative viability (Quizartinib + Navitoclax; first compound 0.003162 µM) | relative viability (Quizartinib + Navitoclax; first compound 0.01 µM) | relative viability (Quizartinib + Navitoclax; first compound 0.03162 µM) | relative viability (Quizartinib + Navitoclax; first compound 0.1 µM) | relative viability (Quizartinib + Foretinib; first compound 0.001 µM) | relative viability (Quizartinib + Foretinib; first compound 0.003162 µM) | relative viability (Quizartinib + Foretinib; first compound 0.01 µM) | relative viability (Quizartinib + Foretinib; first compound 0.03162 µM) | relative viability (Quizartinib + Foretinib; first compound 0.1 µM)
1 | 201T | 1.01 | 1.01 | 0.987 | 0.98 | 0.934 | 0.922 | 1.01 | 1.01 | 0.998 | 1.24 | 1.21 | 1.25 | 1.24 | 1.25 | 1.07 | 0.998 | 1.09 | 0.942 | 1.01
2 | A549 | 0.751 | 0.976 | 0.928 | 0.884 | 1.05 | 1.02 | 0.984 | 0.995 | 0.906 | 1.26 | 1.11 | 1.25 |  | 1.13 | 0.949 | 0.975 | 1.08 | 0.818 | 1.05
3 | A-427 | 0.771 | 0.982 | 0.979 | 0.922 | 1.05 | 0.883 | 0.951 | 1.03 | 0.941 | 0.94 | 0.881 | 0.869 | 0.906 | 0.95 |  | 0.988 | 0.97 | 1.04 | 0.957
4 | ABC-1 | 0.771 | 0.825 | 0.817 | 0.673 | 0.913 | 0.707 | 0.61 | 0.396 | 0.219 |  |  |  |  |  | 0.64 | 0.993 | 1.1 | 0.929 | 0.846
5 | BEN | 0.906 | 0.982 | 0.94 | 0.813 | 0.972 | 0.899 | 0.972 | 1.09 | 1.11 | 0.0726 | 0.0683 | 0.107 | 0.051 | 0.0586 | 0.672 | 0.772 | 0.648 | 0.424 | 0.672
6 | CAL-12T | 0.92 | 1.06 | 1.05 | 0.821 | 1.11 | 0.928 | 0.998 | 1.08 | 0.719 | 1.15 | 1.1 | 1.33 | 1.24 | 1.32 | 0.781 | 1.1 | 1.14 | 0.935 | 1.22
7 | COR-L23 | 0.952 | 0.939 | 0.992 | 0.979 | 1.05 | 0.988 | 0.912 | 0.689 | 0.281 | 1.01 | 0.968 | 1.02 | 0.875 | 1.03 | 0.979 | 0.856 | 1.06 | 0.973 | 1.02
8 | COR-L 105 | 0.864 | 0.961 | 0.906 | 0.87 | 1.05 | 0.914 | 0.804 | 0.912 | 0.692 | 0.536 | 0.71 | 0.907 | 0.651 | 0.729 | 0.775 | 0.986 | 1.03 | 1 | 0.964
